Experiment [1] has as its system COC Apt-AuNP (biotin-ended COC aptamer) (DNA, aptamer) AGGAATTCAGATCTCCCTGCAGTTCGAGGAAGAATAGACCTGCCTTCTAATAGCTCGAGGAGCTCAGGATCCCG
Kind of experiment: competitive lateral flow assay.

Experiment [2] has as its system MET Apt-AuNP (biotin-ended MET aptamer) (DNA, aptamer) AGGAATTCAGATCTCCCTGCAGAAAACAGACCACCCACTTTGAATCCACTTGACTCGAGGAGCTCAGGATCCCG
Nature of the experiment: competitive lateral flow assay.

In experiment [3] the test system is COC aptamer (DNA, aptamer) AGGAATTCAGATCTCCCTGCAGTTCGAGGAAGAATAGACCTGCCTTCTAATAGCTCGAGGAGCTCAGGATCCCG
Nature of the experiment: isothermal titration calorimetry. The following applies: 100 mM NaCl, 2.7 mM KCl, 2 mM MgCl2. (ITC needs no label: the signal is the heat of the interaction.)

Experiment [4] deals with MET aptamer (DNA, aptamer) AGGAATTCAGATCTCCCTGCAGAAAACAGACCACCCACTTTGAATCCACTTGACTCGAGGAGCTCAGGATCCCG
Kind of experiment: isothermal titration calorimetry. The following applies: 100 mM NaCl, 2.7 mM KCl, 2 mM MgCl2.

Structures are written as SMILES. Read-outs that look alike come from different tables or passages of the source.

By Kd is commonly meant the equilibrium constant for the complex coming apart. High values mean lower affinity, low ones higher affinity.

For the compound `CCCCCc1cc(O)c2c(c1)OC(C)(C)[C@@H]1CCC(C)=C[C@@H]21`, the binding result in experiment [1] and in experiment [2] was “no” in each case.

For `COC(=O)[C@H]1[C@@H](OC(=O)c2ccccc2)C[C@@H]2CC[C@H]1N2C`, the binding entry is given as “yes” in experiment [1] (synthetic saliva, gold nanoparticle conjugate, COC-BSA test line, positive at 5.0 ng/mL to 1.0 µg/mL) and “no” in experiment [2]. The Kd in experiment [3] is 0.306 µM.

Turning to `COc1ccc2c3c1O[C@H]1[C@@H](O)C=C[C@H]4[C@@H](C2)N(C)CC[C@@]341`, the binding result in experiment [1] and in experiment [2] was “no” throughout.

With `CN[C@@H](C)Cc1ccccc1`, the binding result in experiment [1] (synthetic saliva, gold nanoparticle conjugate, COC-BSA test line) is “no”; in experiment [2], “yes”. Besides, the Kd in experiment [4] was 0.57 µM.

Values taken from article PMC11764150 (2025).
